Legend:
Assay type in all cases: cell-based
[1] = tested on: renal carcinoma cell line A498; test: Cell viability (sulforhodamine B), A498; details: Homo sapiens, Table 5
Procedure: In an embodiment, the antiproliferative activity of the compounds was further determined against renal carcinoma cell lines and non-neoplastic kidney cell line.
In an embodiment, three human breast cancer cell lines Hs578T, MDA-MB-468 and MCF-7, and a normal breast cell line MCF-10A, were obtained from ATCC (American Type Culture Collection). The cancer cell lines were cultured in Dulbecco's modified Eagle medium, 4.5 g/l glucose (DMEM, Gibco) supplemented with 10% heating inactivated Fetal Bovine Serum (FBS, Gibco) and 1% antibiotic solution (Penicillin-Streptomycin, Gibco). The normal cell line was cultured in Dulbecco's Modified Eagle Medium: Nutrient Mixture F-12 (DMEM/F12, Gibco) supplemented with 5% heating inactivated FBS (Gibco), 1% antibiotic solution (Penicillin-Streptomycin, Gibco), 1% steroid hormone (Hydrocortisone, Sigma-Aldrich), 0.1% peptide hormone (Insulin, Sigma-Aldrich) and 0.01% protein complex (Cholera Toxin, Gibco). Two distinct human acute myeloid leukemia (AML) cell lines, HL-60 (FAB M2) and KG-1 (erythroleukemia-FAB M6), and one human lymphoblastic leukemia (ALL) cell line, Jurkat (T cell type), were also used. These three cell lines were obtained from German Collection of Microorganisms and Cell cultures (DMSZ®, Deutsche Sammlung von Mikroorganismen and Zellkulturen in German). Cells were cultured in RPMI 1640 medium (Biochrom®-Merck Millipore) supplemented with 10% heating inactivated FBS (Biochrom®-Merck Millipore) and 1% antibiotic/antimitotic mixture (Invitrogen®). Three human glioblastoma (GBM) cell line models, two established and commercially available cell lines (U87MG and GAMG, kind gift from Rui M. Reis) and one primary GBM culture (GLIB) were also used. GBM cells were cultures in DMEM (Biochrom-Merck Millipore), all supplemented with 10% FBS. The Renal cell carcinoma cell lines A498, 786-O, Caki-2 and HK2 were obtained from ATCC. The cancer cell line A498 was cultured in MEM medium (Biochrom®-Merck Millipore), 786-O was cultured in RPMI 1640 medium (Biochrom®-Merck Millipore), Caki-2 was cultured in Mc Coys medium (Biochrom®-Merck Millipore) and HK2 was cultured in RPMI 1640 medium (Biochrom®-Merck Millipore). All the media were supplemented with 10% heat inactivated FBS (Biochrom®-Merck Millipore) and 1% antibiotic/antimitotic mixture (Invitrogen®). All cells were grown in a humidified incubator at 37° C. and 5% CO2. For all assays, DMSO (Dimethyl Sulfoxide, Sigma-Aldrich) controls were used.
In an embodiment, cell viability assays were performed. MCF-7, Hs578T and MCF-10A cells were plated in triplicate in 96-multiwell culture plates, at 3000 cells per mL, or 5000 cells per mL for MDA-MB-468 (100 μL/well). The cells were then allowed to adhere in complete medium, over a period of 18-20 hours. Cells were subsequently treated with 7 different concentrations (from 0.1 to 40 μM or 5 to 60 μM) of compounds or control in fresh medium. HL-60, KG-1 and Jurkat cell lines were plated in 96-multiwell culture plates at 50.000 cells/100 μL per well and treated with different concentrations (from 0.001 to 2 μM) of the compounds described (or control). Cells were plated, in triplicate, at an initial density of 2000 cells/well for GAMG, 4000 cells/well for GL18 and 6000 cells/well for U87MG, in 96-well plates, and allowed to adhere for 18-20 hours. Cells were then treated with different concentrations of the compounds (0.005 to 100 μM) or with control. A498 and 786-O cells were plated at 2000 cells per mL, Caki-2 cells were plated at 3000 cells per mL and HK2 cells were plated at 2000 cells per mL in triplicate, in 96-multiwell culture plates (100 μL/well), and allowed to adhere over a period of 18-20 hours in complete medium. The cells were then treated with 7 different concentrations (from 0.1 to 40 μM or 5 to 60 μM) of compounds or control in fresh medium. […]

[2] = tested on: rapamycin-resistant A498 cell line; test: Cell viability, rapamycin-resistant A498; details: for IC50: Homo sapiens, A498
Procedure: (§1) In an embodiment, the antiproliferative activity of compounds MC421, MC409, MC408, MC350, MC416, MC410, MC411, MC415 and MC413 was further determined against drug-resistant renal carcinoma cell lines.
(§2) In an embodiment, cell viability assays were performed. MCF-7, Hs578T and MCF-10A cells were plated in triplicate in 96-multiwell culture plates, at 3000 cells per mL, or 5000 cells per mL for MDA-MB-468 (100 μL/well). The cells were then allowed to adhere in complete medium, over a period of 18-20 hours. Cells were subsequently treated with 7 different concentrations (from 0.1 to 40 μM or 5 to 60 μM) of compounds or control in fresh medium. HL-60, KG-1 and Jurkat cell lines were plated in 96-multiwell culture plates at 50.000 cells/100 μL per well and treated with different concentrations (from 0.001 to 2 μM) of the compounds described (or control). Cells were plated, in triplicate, at an initial density of 2000 cells/well for GAMG, 4000 cells/well for GL18 and 6000 cells/well for U87MG, in 96-well plates, and allowed to adhere for 18-20 hours. Cells were then treated with different concentrations of the compounds (0.005 to 100 μM) or with control. A498 and 786-O cells were plated at 2000 cells per mL, Caki-2 cells were plated at 3000 cells per mL and HK2 cells were plated at 2000 cells per mL in triplicate, in 96-multiwell culture plates (100 μL/well), and allowed to adhere over a period of 18-20 hours in complete medium. The cells were then treated with 7 different concentrations (from 0.1 to 40 μM or 5 to 60 μM) of compounds or control in fresh medium. After 72 h of incubation, the MTS (Promega) reduction assay was performed according to manufacturer's instructions to indirectly assess the percentage of viable cells through metabolic cell viability. After 1-2 hours of incubation with MTS in a humidified atmosphere at 37° C. and 5% CO2, absorbance was measured at 490 nm. For RCC cell lines, sulforhodamine B assay was used according to manufacturer's instructions. The data was log-transformed and the concentration of each compound that decreased the number of viable cells to 50% (IC50) relative to control was calculated using the GraphPad Prism 6 software.

[3] = tested on: cediranib-resistant Caki-2 cell line; test: Cell viability, cediranib-resistant Caki-2; details: for IC50: Homo sapiens, CAKI-2
Procedure: as §1, §2

For COc1cccc2c1Oc1nc(-c3ccccc3)[nH]c1C2 [MC350, 5-methoxy-2-phenyl-3,9-dihydrochromeno[2,3-d]imidazoles], the IC50 [1] was 830 nM, the “Selectivity Index (vs HK2) A498 Resistant” value [2] was 12.27 and the IC50 [2] was 1.62 µM. For the same compound, the “Selectivity Index (vs HK2) Caki-2 Resistant” value [3] was 32.28 and the IC50 [3] was 0.646 µM.

COc1cccc2c1Oc1nc(-c3ccc(F)cc3)[nH]c1C2C1c2cccc(OC)c2Oc2nc(-c3ccc(F)cc3)[nH]c21 (centres unmarked) [MC406, 2,2′-bis(4-fluorophenyl)-5,5′-dimethoxy-1,1,9,9′-tetrahydro-9,9′-bichromeno[2,3-]imidazoles] was tested, and the IC50 [1] was 1160 nM.

In the case of COc1cccc2c1Oc1nc(-c3ccccc3F)[nH]c1C2 [MC407, 2-(2-fluorophenyl)-5-methoxy-3,9-dihydrochromeno[2,3-d]imidazoles], the IC50 [1] is reported as 1360 nM.

With COc1cccc2c1Oc1nc(-c3ccc(Br)cc3)[nH]c1C2 [MC408, 2-(4-bromophenyl)-5-methoxy-3,9-dihydrochromeno[2,3-d]imidazoles] the IC50 [1] was 140 nM, the “Selectivity Index (vs HK2) A498 Resistant” value [2] was 2.26 and the IC50 [2] was 1.07 µM. The “Selectivity Index (vs HK2) Caki-2 Resistant” value [3] was 123.79 and the IC50 [3] was 0.028 µM.

With COc1cccc2c1Oc1nc(-c3ccc(F)cc3)[nH]c1C2 [MC409, 2-(4-fluorophenyl)-5-methoxy-3,9-dihydrochromeno[2,3-d]imidazoles] the IC50 [1] was 560 nM, the “Selectivity Index (vs HK2) A498 Resistant” value [2] was 5.84 and the IC50 [2] was 0.51 µM. The “Selectivity Index (vs HK2) Caki-2 Resistant” value [3] was 9.56 and the IC50 [3] was 0.33 µM.

For COc1cccc2c1Oc1nc(-c3cc(F)cc(F)c3O)[nH]c1C2 [MC410, 2,4-difluoro-6-(5-methoxy-3,9-dihydrochromeno[2,3-d]imidazol-2-yl)phenol], the “Selectivity Index (vs HK2) Caki-2 Resistant” value [3] was 2.60 and the IC50 [3] was 6.41 µM.

For COc1ccccc1-c1nc2c([nH]1)Cc1cccc(OC)c1O2 [MC411, 5-methoxy-2-(2-methoxyphenyl)-3,9-dihydrochromeno[2,3-]imidazoles], the “Selectivity Index (vs HK2) Caki-2 Resistant” value [3] was 1.92 and the IC50 [3] was 1.62 µM.

For COc1cccc2c1Oc1nc(-c3ccc(O)cc3)[nH]c1C2 [MC413, 4-(5-methoxy-3,9-dihydrochromeno[2,3-d]imidazol-2-yl)phenol], the IC50 [1] was 960 nM, the “Selectivity Index (vs HK2) A498 Resistant” value [2] was 12.32 and the IC50 [2] was 0.77 µM. The “Selectivity Index (vs HK2) Caki-2 Resistant” value [3] was 29.6 and the IC50 [3] was 0.335 µM.

With CCOc1ccc(-c2nc3c([nH]2)Cc2cccc(OC)c2O3)cc1 [MC415, 2-(4-ethoxyphenyl)-5-methoxy-3,9-dihydrochromeno[2,3-d]imidazoles] the IC50 [1] was 120 nM, the “Selectivity Index (vs HK2) A498 Resistant” value [2] was 8.03 and the IC50 [2] was 0.58 µM. For the same compound, the “Selectivity Index (vs HK2) Caki-2 Resistant” value [3] was 64.5 and the IC50 [3] was 0.08 µM.

In the case of COc1ccc(-c2nc3c([nH]2)Cc2cccc(OC)c2O3)c(Br)c1O [MC416, 2-bromo-6-methoxy-3-(5-methoxy-3,9-dihydrochromeno[2,3-]imidazol-2-yl)phenol], the “Selectivity Index (vs HK2) Caki-2 Resistant” value [3] is reported as 1.97 and the IC50 [3] is reported as 1.59 µM.

In the case of COc1cccc2c1Oc1nc(-c3ccc(Br)cc3)[nH]c1C2C1c2cccc(OC)c2Oc2nc(-c3ccc(Br)cc3)[nH]c21 (centres unmarked) [MC421, 2,2′-bis(4-bromophenyl)-5,5′-dimethoxy-1,1,9,9′-tetrahydro-9,9′-bichromeno[2,3-]imidazoles], the IC50 [1] is reported as 340 nM, the “Selectivity Index (vs HK2) A498 Resistant” value [2] is reported as 14.56 and the IC50 [2] is reported as 0.16 µM. The “Selectivity Index (vs HK2) Caki-2 Resistant” value [3] was 123.50 and the IC50 [3] was 0.02 µM.
